We go through one compound from patent publication US12723261B2, “Process for producing a plurality of Neddylation site modified AAV2 vectors” (INDIAN INSTITUTE OF […], priority 2018, dated 2026).

Each structure is given as a SMILES string.

This assay deals with HeLa cells. The experiment in a line: In vitro drug assay: scAAV2-EGFP transduction after pre-treatment with Neddylation inhibitor. The assay is classed as cell-based. As to conditions: versus control cells. Here is the method: Approximately 3×10^4 HeLa cells were seeded in 24 well plate and incubated for 12 hours in Iscove's-modified Dulbecco's medium (IMDM) with 10% fetal bovine serum in humidified conditions and 5% CO2. Cells were either mock treated or treated with a Neddylation inhibitor, MLN4924 (Calbiochem, Merck, Kenilworth, USA) at a concentration of 1 μM and incubated at 37° C. for 3 hours. After incubation, cells were infected with scAAV2-EGFP vectors at a multiplicity of infection (MOI) of 5000 for 3 hours in IMDM at 37° C. Forty-eight hours later, the transgene (GFP) expression was quantified by flow cytometry (BDaccuri, BD Biosciences, Franklin Lakes, USA).
To determine the role of cellular Neddylation during AAV2 infection, a small molecular inhibitor of Neddylation being used herein, MLN4924. The MLN4924 prevents the formation of the NEDD8 and Neddylation activating enzyme (NAE1) protein complex. The HeLa cells were pre-treated for three hours, after which the HeLa cells were infected with scAAV2-EGFP. […] Further studies such as specific targeting of Neddylation pathway genes by RNA interference are warranted to understand the mechanism involved in this process. […] Forty-eight hours later, the transgene (GFP) expression was quantified by flow cytometry. […]

Take `NS(=O)(=O)OC[C@@H]1C[C@@H](n2ccc3c(N[C@H]4CCc5ccccc54)ncnc32)C[C@@H]1O` [MLN4924]: the “improvement of AAV transduction by Neddylation inhibition” value was found to be 50%.
